The subject of data set [1] is Csb^G744ter/G744ter/Xpa^null/null double mutant mice. The data set is classed as in vivo, mouse. The note with it: for Clearance from the tissues and bloodstream of treated subjects: higher single dose administrations; for Effectiveness of higher single dose administrations: versus low constant source; for Positive results as with mannitol and/or proline: tested under similar conditions. The source says: Additionally these animals have an enhanced photoreceptor cell loss. The accumulation of oxidative DNA damage before and immediately after birth presumably negatively influences transcription and causes the premature ageing phenotype.
In order to investigate the effect of radical scavengers on the CSB/XPA double knockout mice, the effect of several compounds and compositions was monitored by the frequency of CSB/XPA DKO mice (closer to the expected mendelian frequency of 25%), an extended life-span (longer than the average three weeks for untreated DKO mice) and a delay or to some extent inhibit the premature ageing phenotype.
To obtain CSB/XPA double mutant mice the following crossing were done:
From these crossings CSB^−/−XPA^−/− mice were born with a frequency of 9%, whereas the expected Mendelian frequency is 25%.
The offspring were genotyped following normal procedures (tail clipping and genomic DNA analysis by Southern blot analysis or PCR amplification) and monitored for life span.

The nature of data set [2]: Serum mannitol concentration in CSB mice with osmotic pump. The data set is classed as in vivo. To be noted: mouse, sc, subcutaneous osmotic pump (200 μl), read-out: Serum [mannitol] after 3 weeks. As for the experimental part:
The sample is further precipitated using acetonitrile and centrifuged. […] The organic layer is isolated and evaporated to dryness. The residue is dissolved in injection solvent and injected.
21 CSB animals, age 6 months, received an osmotic pump, 7×30 mm (volume 200 μl), subcutaneously implanted under the skin on the back, for continuous release of Phosphate Buffered Saline (control), 0.3M D-Mannitol or 0.03M D-Mannitol dissolved in Phosphate Buffered Saline, 7 animals per compound. To determine the actual D-Mannitol concentration in the blood of these animals, blood samples were taken every 7 days after the implantation of the osmotic pump. After three weeks, eyes were isolated from these animals and TUNEL staining was performed to determine the effect of D-Mannitol on diminishing the age-related photoreceptor-loss in CSB animals, Blood and urine samples were taken for measurements of D-mannitol levels and for determination of biomarkers. In a second experiment, the D-Mannitol treatment via osmotic pumps were repeated, but here on 8 week-old CSB mice were γ-irradiated, in order to see if D-mannitol can reduce the γ-induced photoreceptor-loss observed in CSB mice.

Data set [3] has as its system CSB mice. Description: Age-related photoreceptor loss in CSB mice, TUNEL staining of the retina, without radiation. The data set is classed as in vivo, mouse. To be noted: for Apoptotic index without radiation (number of TUNEL-positive cells): osmotic pump, 3 weeks, CSB mice age 6 months. As for the experimental part:
(§1) CSB mice have accelerated aging-related photoreceptor loss. […] The photoreceptor loss can also be induced in young adult CSB mice (8-10 weeks) with γ-irradiation (induces a.o. oxidative DNA damage). Since aging-related photoreceptor-loss is at least in part caused by unrepaired oxidative DNA damage, we are able to intervene with anti-oxidant or radical scavenger molecules, in particular with mannitol and/or proline. 21 CSB animals, age 6 months, received an osmotic pump, 7×30 mm (volume 200 μl), subcutaneously implanted under the skin on the back, for continuous release of Phosphate Buffered Saline (control), 0.3M D-Mannitol or 0.03M D-Mannitol dissolved in Phosphate Buffered Saline, 7 animals per compound. To determine the actual D-Mannitol concentration in the blood of these animals, blood samples were taken every 7 days after the implantation of the osmotic pump. After three weeks, eyes were isolated from these animals and TUNEL staining was performed to determine the effect of D-Mannitol on diminishing the age-related photoreceptor-loss in CSB animals, Blood and urine samples were taken for measurements of D-mannitol levels and for determination of biomarkers. In a second experiment, the D-Mannitol treatment via osmotic pumps were repeated, but here on 8 week-old CSB mice were γ-irradiated, in order to see if D-mannitol can reduce the γ-induced photoreceptor-loss observed in CSB mice. For retinal evaluation by TUNEL staining, eyes were marked nasally with Alcian blue (5% Alcian blue in 96% ethanol), enucleated, fixed in 4% paraformaldehyde in 0.1M phosphate buffer, washed in PBS and embedded in paraffin. Horizontal sections (5 μm thick) of the retina were cut and sections in the middle of the retina were selected by Alcian blue marking and proximity of the optic nerve. […] For quantification, the number of TUNEL-positive cells in the inner nuclear layer (INL) and outer nuclear layer (ONL) were counted in 6 whole sections per mouse.

Data set [4] concerns CSB mice. Description: γ-irradiation induced photoreceptor loss in CSB mice, TUNEL staining of the retina. The data set is classed as in vivo, mouse. To be noted: osmotic pump, 8 week-old CSB mice, γ-irradiated. As for the experimental part: as §1, with “biomarkers.” for “biomarkers. In a second experiment, the D-Mannitol treatment via osmotic pumps were repeated, but here on 8 week-old CSB mice were γ-irradiated, in order to see if D-mannitol can reduce the γ-induced photoreceptor-loss observed in CSB mice. For retinal evaluation by TUNEL staining, eyes were marked nasally with Alcian blue (5% Alcian blue in 96% ethanol), enucleated, fixed in 4% paraformaldehyde in 0.1M phosphate buffer, washed in PBS and embedded in paraffin. Horizontal sections (5 μm thick) of the retina were cut and sections in the middle of the retina were selected by Alcian blue marking and proximity of the optic nerve.”, “mouse. […]” for “mouse.”

A short description of data set [5]: In vitro AOC (anti-oxidant capacity). The note with it: effective concentrations between 0.1 μg/ml and 10 μg/ml as measured in the serum. The source says: The compositions of the invention may be of any type. […] Mannitol and proline in particular have well documented anti-oxidant properties.
Data set [6] is described as follows: Transmission of D-Mannitol and L-Proline from mother to pup, osmotic pump in pregnant wild type mice, LC-MS/MS levels. The note with it: osmotic pump 200 μl, 0.3M alone or 0.2M each combined, 28 days, pregnant wild type mice (C57B1/6). As for the experimental part:
The sample is further precipitated using acetonitrile and centrifuged.
(§2) The LLOQ (Lowest Limit of Quantitation) for proline is typically 0.250 μg/ml. […] The sample is further precipitated using acetonitrile and centrifuged. An aliquot of the supernatant is evaporated to dryness under a steam of nitrogen at 60° C., Milli-Q water is added and the preparation is vortexed. Methanol is subsequently added to the preparation and vortexed. Usually Milli-Q water and methanol are added in a ratio of 1/5. The preparation is centrifuged for 2 minutes at a speed of 4000 g or more. The obtained preparation is injected. The apparatus used for LC-MS/MS is API4000 LC-MS/MS.

The conditions of data set [7]: 0.2M L-Proline via drinking water, one week, wt animals. As for the experimental part:
as §2
L-Proline was also measured in the blood and urine of four wt animals that received 0.2M L-Proline via their drinking water. As a control, four wt animals received just drinking water. The duration of this treatment was one week, after which one blood sample and one urine sample was taken.

[8] abbreviates: 5% D-mannitol in PBS, osmotic pump in pregnant females.

Read-outs that look alike come from different tables or passages of the source.

Consider `OC[C@@H](O)[C@@H](O)[C@H](O)[C@H](O)CO` [Mannitol, hexane-1,2,3,4,5,6-hexyl], for which the “Frequency of birth and survival after birth of XPA/CSB double KO mice” value in data set [1] (2% D-Mannitol administered to drinking water) is “Comparable results”. Further, the “Frequency of birth of XPA/CSB double KO mice” value in data set [1] (setting [8]) was “increase in frequency of birth”. Moreover, in data set [1] (setting [8]), the “Survival after birth (life span) of XPA/CSB double KO mice” value is “increase in survival after birth”. The “Clearance from the tissues and bloodstream of treated subjects” value in data set [1] is listed as “rapidly cleared”. The “Effectiveness of higher single dose administrations” value in data set [1] is listed as “less or even ineffective”. In addition, the concentration at 3 weeks was 100 ± 30 ng/mL in data set [2] (0.03 M (200 μl osmotic pump, continuous release), 0.03M D-Mannitol in PBS) and 650 ± 180 ng/mL in data set [2] (0.3 M (200 μl osmotic pump, continuous release), 0.3M D-Mannitol in PBS). Besides, the “Apoptotic index without radiation (number of TUNEL-positive cells)” value is 24.1 ± 6.8 with CSB mice [3] (0.03M D-Mannitol) and 24.8 ± 6.0 in the data set on CSB mice [3] (0.3M D-Mannitol). Also, the “Change of the apoptotic index (photoreceptor loss)” value in the data set on CSB mice [3] (endogenous or exogenous (radiation induced) oxidative stress, CSB mice) is “significant decrease”. Also, the “Apoptotic index after radiation (number of TUNEL-positive cells)” value in the data set with CSB mice [4] (0.03M D-Mannitol) was 29.5 ± 6.0; with CSB mice [4] (0.3M D-Mannitol), 28.9 ± 11.3. For the same compound, the “AOC (anti-oxidant capacity) in vitro” value in data set [5] is reported as “no or negligible”.
For `O=C(O)[C@@H]1CCCN1` [proline, L-Proline], in data set [1], the “Clearance from the tissues and bloodstream of treated subjects” value is “rapidly cleared”; the “Effectiveness of higher single dose administrations” value is on record as “less or even ineffective”. In addition, the “Frequency of survival of DKO pups after birth” value in data set [1] (proline treatment) is “equally effective in increasing the frequency of survival”. Further, the “Elevated levels in blood of mothers and pups, in milk or in whole embryo's” value in data set [6] is recorded as “not detected”. Also, in data set [7], the “L-Proline levels in the blood” value is given as “no elevated levels” and the “L-Proline levels in the urine” value is reported as “High levels”. The “AOC (anti-oxidant capacity) in vitro” value in data set [5] is recorded as “no or negligible”.
Take `O=C1O[C@H]([C@@H](O)CO)C(O)=C1O` [vitamin C]: in data set [1], the “Positive results as with mannitol and/or proline” value is reported as “did not yield the positive results”.
Same read-out and setting: the same measure for vitamin E: “did not yield the positive results”.
